Measured values as given in ChEMBL document CHEMBL5291721, “A preclinical secondary pharmacology resource illuminates target-adverse drug reaction associations of marketed drugs” (Nat Commun, 2023).

Key:
Bile salt export pump = Bile salt export pump (Homo sapiens, UniProt O95342); assay type: functional
Mu-type opioid receptor = Mu-type opioid receptor (Homo sapiens, UniProt P35372)
[1] = target: Sodium-dependent dopamine transporter (Homo sapiens, UniProt Q01959)
[2] = target: T1, Alpha-1A adrenergic receptor (Homo sapiens, UniProt P35348); assay type: functional, cell-based
T1 sequence (P35348 whole entry): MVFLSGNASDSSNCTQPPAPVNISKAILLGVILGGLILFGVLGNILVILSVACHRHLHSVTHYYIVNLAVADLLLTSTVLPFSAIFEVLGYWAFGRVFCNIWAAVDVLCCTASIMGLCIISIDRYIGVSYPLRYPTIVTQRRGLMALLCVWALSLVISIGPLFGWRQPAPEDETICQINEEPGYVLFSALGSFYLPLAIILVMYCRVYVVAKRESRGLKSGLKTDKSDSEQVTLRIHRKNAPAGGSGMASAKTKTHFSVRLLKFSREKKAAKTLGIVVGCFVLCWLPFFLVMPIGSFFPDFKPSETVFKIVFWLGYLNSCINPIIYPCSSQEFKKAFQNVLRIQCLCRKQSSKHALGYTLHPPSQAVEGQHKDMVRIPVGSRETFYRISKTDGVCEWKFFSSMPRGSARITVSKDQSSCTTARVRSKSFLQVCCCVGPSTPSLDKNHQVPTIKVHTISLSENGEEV

[3] = target: 5-hydroxytryptamine receptor 2B (Homo sapiens, UniProt P41595); assay type: functional, cell-based
Chain of 5-hydroxytryptamine receptor 2B (P41595 whole entry): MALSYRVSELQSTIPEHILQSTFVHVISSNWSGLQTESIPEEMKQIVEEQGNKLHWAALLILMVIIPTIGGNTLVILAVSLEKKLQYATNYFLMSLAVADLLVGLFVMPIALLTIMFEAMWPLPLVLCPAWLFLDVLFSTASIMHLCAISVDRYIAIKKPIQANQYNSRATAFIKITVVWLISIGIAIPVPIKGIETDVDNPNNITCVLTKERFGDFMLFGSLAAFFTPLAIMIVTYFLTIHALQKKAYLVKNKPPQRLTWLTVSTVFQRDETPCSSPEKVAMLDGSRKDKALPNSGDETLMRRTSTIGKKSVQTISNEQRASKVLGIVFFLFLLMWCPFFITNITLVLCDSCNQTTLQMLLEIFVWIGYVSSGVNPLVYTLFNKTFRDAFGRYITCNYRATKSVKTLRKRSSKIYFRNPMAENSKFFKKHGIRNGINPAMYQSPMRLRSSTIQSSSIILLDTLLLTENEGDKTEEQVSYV

[4] = target: Delta-type opioid receptor (Homo sapiens, UniProt P41143)
Cannabinoid receptor 1 = Cannabinoid receptor 1 (Homo sapiens, UniProt P21554); assay type: functional, cell-based
Chain of Cannabinoid receptor 1 (P21554 whole entry): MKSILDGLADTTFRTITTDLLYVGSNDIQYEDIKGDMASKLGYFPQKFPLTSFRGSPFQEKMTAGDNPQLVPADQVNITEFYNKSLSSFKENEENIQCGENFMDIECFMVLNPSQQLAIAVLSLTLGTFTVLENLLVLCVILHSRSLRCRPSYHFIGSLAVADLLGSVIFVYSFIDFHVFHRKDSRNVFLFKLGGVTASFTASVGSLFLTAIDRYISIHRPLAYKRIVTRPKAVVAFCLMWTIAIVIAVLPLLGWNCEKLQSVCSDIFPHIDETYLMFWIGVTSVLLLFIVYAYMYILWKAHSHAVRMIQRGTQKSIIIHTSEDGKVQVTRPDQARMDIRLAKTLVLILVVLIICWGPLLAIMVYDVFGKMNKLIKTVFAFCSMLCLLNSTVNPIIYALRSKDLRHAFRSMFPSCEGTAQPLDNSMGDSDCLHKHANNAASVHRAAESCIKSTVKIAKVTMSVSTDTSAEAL

Adenosine receptor A1 = target: T2, Adenosine receptor A1 (Homo sapiens, UniProt P30542)
T2 sequence (P30542 whole entry): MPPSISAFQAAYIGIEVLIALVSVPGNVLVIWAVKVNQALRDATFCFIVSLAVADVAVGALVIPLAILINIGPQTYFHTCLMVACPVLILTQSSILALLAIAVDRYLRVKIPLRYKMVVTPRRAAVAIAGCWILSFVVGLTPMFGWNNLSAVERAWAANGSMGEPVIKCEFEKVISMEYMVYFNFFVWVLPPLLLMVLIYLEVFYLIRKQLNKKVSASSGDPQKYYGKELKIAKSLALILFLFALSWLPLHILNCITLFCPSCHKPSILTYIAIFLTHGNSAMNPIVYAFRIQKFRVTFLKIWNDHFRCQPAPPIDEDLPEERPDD

Adenosine receptor A2a = Adenosine receptor A2a (Homo sapiens, UniProt P29274)
Chain of Adenosine receptor A2a (P29274 whole entry): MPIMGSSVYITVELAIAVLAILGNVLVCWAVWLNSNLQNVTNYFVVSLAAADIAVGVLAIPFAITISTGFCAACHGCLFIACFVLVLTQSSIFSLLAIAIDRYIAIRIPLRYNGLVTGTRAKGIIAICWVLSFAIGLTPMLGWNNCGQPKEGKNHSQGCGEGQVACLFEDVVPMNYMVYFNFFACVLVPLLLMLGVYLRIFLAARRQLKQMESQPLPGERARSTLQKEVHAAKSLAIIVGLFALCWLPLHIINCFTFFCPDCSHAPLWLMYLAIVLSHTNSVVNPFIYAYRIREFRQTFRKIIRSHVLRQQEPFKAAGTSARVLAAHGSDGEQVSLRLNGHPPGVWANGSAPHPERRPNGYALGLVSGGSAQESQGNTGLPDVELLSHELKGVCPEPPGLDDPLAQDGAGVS

[5] = target: Beta-1 adrenergic receptor (Homo sapiens, UniProt P08588); assay type: functional
Chain of Beta-1 adrenergic receptor (P08588 whole entry): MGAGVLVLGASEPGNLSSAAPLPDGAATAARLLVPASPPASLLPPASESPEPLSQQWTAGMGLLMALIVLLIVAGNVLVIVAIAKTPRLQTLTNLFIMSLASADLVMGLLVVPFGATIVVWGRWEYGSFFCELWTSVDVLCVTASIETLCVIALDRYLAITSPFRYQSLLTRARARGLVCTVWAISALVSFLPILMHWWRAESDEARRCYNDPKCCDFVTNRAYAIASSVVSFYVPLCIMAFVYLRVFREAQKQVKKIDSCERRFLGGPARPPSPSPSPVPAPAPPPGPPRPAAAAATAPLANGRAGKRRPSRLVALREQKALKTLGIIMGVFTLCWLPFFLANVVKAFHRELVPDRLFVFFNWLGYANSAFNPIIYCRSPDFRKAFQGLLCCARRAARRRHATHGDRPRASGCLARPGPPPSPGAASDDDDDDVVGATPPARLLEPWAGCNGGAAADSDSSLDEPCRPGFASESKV

[6] = target: T3, Type-1 angiotensin II receptor (Homo sapiens, UniProt P30556)
T3 sequence (P30556 whole entry): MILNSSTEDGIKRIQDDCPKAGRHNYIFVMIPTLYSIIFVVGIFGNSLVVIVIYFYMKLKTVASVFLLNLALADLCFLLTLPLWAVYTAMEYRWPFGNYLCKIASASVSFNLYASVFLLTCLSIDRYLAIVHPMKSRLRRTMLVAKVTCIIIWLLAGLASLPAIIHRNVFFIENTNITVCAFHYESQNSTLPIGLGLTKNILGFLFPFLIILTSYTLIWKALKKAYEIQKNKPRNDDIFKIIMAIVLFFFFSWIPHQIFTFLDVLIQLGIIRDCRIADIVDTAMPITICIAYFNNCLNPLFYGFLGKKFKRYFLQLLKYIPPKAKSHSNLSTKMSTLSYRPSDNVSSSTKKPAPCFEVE

[7] = target: T4, Cholecystokinin receptor type A (Homo sapiens, UniProt P32238)
T4 sequence (P32238 whole entry): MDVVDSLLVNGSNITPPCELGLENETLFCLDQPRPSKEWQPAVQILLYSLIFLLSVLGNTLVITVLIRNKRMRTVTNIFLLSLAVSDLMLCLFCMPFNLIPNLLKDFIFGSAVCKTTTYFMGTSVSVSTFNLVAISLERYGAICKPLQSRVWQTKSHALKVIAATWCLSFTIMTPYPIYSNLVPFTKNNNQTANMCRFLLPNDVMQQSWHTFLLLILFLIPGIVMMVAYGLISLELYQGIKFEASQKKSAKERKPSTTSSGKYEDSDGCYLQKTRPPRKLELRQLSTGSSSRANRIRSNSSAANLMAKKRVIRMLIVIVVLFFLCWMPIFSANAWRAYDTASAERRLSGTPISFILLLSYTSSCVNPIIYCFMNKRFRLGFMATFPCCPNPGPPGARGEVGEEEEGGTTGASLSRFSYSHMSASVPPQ

Melanocortin receptor 3 = Melanocortin receptor 3 (Homo sapiens, UniProt P41968)
Chain of Melanocortin receptor 3 (P41968 whole entry): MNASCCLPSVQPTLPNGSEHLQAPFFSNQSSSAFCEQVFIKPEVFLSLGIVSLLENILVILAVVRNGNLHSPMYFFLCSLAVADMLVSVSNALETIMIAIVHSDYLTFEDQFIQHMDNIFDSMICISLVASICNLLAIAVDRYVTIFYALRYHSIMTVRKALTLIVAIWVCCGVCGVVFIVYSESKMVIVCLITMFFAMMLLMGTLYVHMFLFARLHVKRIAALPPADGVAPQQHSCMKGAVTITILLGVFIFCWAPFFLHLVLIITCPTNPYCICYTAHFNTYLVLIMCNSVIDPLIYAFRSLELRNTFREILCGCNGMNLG

Melanocortin receptor 4 = Melanocortin receptor 4 (Homo sapiens, UniProt P32245)
[8] = target: T5, Equilibrative nucleoside transporter 1 (Homo sapiens, UniProt Q99808)
T5 sequence (Q99808 whole entry): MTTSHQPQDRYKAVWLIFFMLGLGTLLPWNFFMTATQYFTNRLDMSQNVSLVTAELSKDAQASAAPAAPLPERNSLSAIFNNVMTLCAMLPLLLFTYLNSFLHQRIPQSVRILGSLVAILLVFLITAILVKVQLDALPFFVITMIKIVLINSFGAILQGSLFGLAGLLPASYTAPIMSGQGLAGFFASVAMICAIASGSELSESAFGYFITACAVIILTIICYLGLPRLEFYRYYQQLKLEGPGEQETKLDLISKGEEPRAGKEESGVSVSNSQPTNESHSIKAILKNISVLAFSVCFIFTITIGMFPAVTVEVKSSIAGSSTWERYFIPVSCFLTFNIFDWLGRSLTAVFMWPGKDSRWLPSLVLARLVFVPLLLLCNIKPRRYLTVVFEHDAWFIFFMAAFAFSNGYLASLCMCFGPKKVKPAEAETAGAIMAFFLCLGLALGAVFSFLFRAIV

[9] = target: 5-hydroxytryptamine receptor 2A (Homo sapiens, UniProt P28223); assay type: functional, cell-based
Chain of 5-hydroxytryptamine receptor 2A (P28223 whole entry): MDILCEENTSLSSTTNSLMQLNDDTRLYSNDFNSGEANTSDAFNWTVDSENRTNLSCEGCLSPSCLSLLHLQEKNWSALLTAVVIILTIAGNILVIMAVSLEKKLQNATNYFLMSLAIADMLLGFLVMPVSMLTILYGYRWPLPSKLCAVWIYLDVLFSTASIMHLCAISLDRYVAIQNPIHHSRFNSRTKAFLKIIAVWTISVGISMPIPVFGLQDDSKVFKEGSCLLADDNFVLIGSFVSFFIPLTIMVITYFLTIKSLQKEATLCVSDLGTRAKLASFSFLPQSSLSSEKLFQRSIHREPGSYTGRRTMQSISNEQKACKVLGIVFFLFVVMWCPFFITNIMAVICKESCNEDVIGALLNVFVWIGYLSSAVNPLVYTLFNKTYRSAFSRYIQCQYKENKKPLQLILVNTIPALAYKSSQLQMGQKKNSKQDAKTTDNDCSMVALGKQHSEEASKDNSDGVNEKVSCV
Note: assay procedure not described here.

Chain of Mu-type opioid receptor (P35372 whole entry): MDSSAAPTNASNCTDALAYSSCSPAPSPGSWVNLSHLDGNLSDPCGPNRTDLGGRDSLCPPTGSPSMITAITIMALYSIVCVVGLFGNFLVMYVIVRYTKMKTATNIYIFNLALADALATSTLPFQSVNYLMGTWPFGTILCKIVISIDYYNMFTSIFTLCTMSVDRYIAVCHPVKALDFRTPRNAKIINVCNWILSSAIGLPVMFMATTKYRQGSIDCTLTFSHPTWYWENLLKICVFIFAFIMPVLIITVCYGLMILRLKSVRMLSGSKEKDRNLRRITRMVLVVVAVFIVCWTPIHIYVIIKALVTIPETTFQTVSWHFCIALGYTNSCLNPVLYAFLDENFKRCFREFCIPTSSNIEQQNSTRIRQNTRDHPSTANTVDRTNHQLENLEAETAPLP
Chain of Bile salt export pump (O95342 whole entry): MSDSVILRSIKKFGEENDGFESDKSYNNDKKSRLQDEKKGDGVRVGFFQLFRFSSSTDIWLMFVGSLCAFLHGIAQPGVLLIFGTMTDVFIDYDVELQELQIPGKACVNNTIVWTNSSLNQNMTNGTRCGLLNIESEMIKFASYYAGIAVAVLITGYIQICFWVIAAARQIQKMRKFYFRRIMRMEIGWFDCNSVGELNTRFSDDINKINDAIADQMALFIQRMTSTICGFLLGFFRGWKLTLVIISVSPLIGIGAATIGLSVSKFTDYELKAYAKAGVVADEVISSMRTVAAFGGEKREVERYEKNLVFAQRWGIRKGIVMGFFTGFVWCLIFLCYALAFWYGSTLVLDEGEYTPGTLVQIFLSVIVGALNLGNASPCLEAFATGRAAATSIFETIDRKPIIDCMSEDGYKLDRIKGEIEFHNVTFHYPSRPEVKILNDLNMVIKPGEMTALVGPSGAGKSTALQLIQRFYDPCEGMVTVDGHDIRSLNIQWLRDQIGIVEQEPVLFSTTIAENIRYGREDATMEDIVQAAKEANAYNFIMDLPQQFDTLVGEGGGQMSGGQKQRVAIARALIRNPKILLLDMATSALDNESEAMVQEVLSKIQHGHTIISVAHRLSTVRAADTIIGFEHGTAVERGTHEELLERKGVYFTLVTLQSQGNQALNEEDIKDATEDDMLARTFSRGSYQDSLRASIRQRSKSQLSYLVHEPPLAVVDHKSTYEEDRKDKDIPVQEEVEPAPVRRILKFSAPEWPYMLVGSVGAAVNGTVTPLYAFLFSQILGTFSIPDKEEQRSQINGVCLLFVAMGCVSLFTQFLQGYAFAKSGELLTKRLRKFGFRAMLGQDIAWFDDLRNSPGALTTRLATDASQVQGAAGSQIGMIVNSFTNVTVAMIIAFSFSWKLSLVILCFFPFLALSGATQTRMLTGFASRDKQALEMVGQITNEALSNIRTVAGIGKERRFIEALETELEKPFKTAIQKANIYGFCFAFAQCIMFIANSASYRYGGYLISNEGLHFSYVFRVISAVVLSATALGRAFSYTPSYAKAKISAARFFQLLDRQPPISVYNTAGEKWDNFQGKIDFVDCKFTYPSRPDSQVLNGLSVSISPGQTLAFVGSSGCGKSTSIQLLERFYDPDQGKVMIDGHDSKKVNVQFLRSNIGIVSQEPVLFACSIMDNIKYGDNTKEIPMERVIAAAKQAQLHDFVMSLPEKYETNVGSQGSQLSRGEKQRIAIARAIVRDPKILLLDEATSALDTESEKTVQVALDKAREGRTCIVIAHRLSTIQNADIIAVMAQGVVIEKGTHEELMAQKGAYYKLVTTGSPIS
Chain of Sodium-dependent dopamine transporter (Q01959 whole entry): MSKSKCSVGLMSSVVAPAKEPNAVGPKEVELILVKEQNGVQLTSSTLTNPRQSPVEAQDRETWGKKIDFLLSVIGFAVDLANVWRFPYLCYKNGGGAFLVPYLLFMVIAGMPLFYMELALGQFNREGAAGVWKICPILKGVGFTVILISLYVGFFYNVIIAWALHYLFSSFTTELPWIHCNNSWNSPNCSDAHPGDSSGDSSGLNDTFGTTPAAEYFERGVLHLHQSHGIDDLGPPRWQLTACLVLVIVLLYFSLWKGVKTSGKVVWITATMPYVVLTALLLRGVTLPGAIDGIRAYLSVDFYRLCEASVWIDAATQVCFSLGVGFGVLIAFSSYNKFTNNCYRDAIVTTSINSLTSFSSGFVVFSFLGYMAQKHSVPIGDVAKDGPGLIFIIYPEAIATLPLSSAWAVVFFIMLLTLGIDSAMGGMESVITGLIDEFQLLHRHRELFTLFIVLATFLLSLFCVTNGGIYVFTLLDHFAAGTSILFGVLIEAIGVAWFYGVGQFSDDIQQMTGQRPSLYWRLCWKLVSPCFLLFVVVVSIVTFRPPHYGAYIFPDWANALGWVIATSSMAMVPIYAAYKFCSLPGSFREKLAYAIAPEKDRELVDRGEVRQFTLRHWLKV

Structure (SMILES)	AC50 (Bile salt export pump)	AC50 (Mu-type opioid receptor)	AC50 [1]	AC50 [2]	AC50 [3]	AC50 [4]	AC50 (Cannabinoid receptor 1)	AC50 (Adenosine receptor A1)	AC50 (Adenosine receptor A2a)	AC50 [5]	AC50 [6]	AC50 [7]	AC50 (Melanocortin receptor 3)	AC50 (Melanocortin receptor 4)	AC50 [8]	AC50 [9]
Cc1cc2c(cc1CC(=O)c1sccc1S(=O)(=O)Nc1onc(C)c1Cl)OCO2 [SITAXENTAN]	9.7 µM	> 30 µM	> 30 µM	–	–	–	–	–	–	–	–	–	–	–	–	–
Cc1cc(O)cc(C)c1Cl [CHLOROXYLENOL]	> 300 µM	> 30 µM	> 30 µM	–	–	–	–	–	–	–	–	–	–	–	–	–
CN(C)CCCN1c2ccccc2CCc2ccc(Cl)cc21 [CLOMIPRAMINE]	–	1.9 µM	4.82 µM	0.0154 µM	> 10 µM	> 30 µM	–	–	–	–	–	–	–	–	–	–
CC(=O)OCC(=O)[C@@]1(O)CC[C@H]2[C@@H]3CCC4=CC(=O)CC[C@]4(C)[C@H]3C(=O)C[C@@]21C [CORTISONE ACETATE]	> 300 µM	–	–	–	> 30 µM	> 30 µM	> 30 µM	–	–	–	–	–	–	–	–	–
C(=N\NC1=NCCN1)/c1c2ccccc2c(/C=N/NC2=NCCN2)c2ccccc12 [BISANTRENE]	–	5.36 µM	9.57 µM	1.47 µM	–	–	–	–	–	–	–	–	–	–	–	–
CC1(C)O[C@@H]2C[C@H]3[C@@H]4C[C@H](F)C5=CC(=O)CC[C@]5(C)[C@H]4[C@@H](O)C[C@]3(C)[C@]2(C(=O)CO)O1 [FLURANDRENOLIDE]	–	> 30 µM	> 30 µM	> 30 µM	–	–	–	–	–	–	–	–	–	–	–	–
COc1cc(Nc2c(C#N)cnc3cc(OCCCN4CCN(C)CC4)c(OC)cc23)c(Cl)cc1Cl [BOSUTINIB]	–	15.3 µM	7.55 µM	–	–	> 10 µM	–	> 30 µM	> 30 µM	> 10 µM	> 30 µM	> 30 µM	18.1 µM	17.7 µM	32.5 µM	–
O=C1c2ccccc2C(=O)C1C(=O)C(c1ccccc1)c1ccccc1 [DIPHENADIONE]	–	> 30 µM	> 30 µM	> 3 µM	–	–	–	–	–	–	–	–	–	–	–	–
C[N+](C)(C)CCCCCCCCCC[N+](C)(C)C [DECAMETHONIUM]	–	> 30 µM	> 30 µM	> 30 µM	–	–	–	–	–	–	–	–	–	–	–	–
CC(=O)Oc1c(C)cc(OCC(O)CNC(C)C)c(C)c1C (stereo unspecified) [METIPRANOLOL]	–	> 30 µM	> 30 µM	> 30 µM	–	–	–	–	–	–	–	–	–	–	–	–
CCC(=O)c1c(O)cc(O)cc1O [FLOPROPIONE]	–	> 30 µM	> 30 µM	> 30 µM	–	–	–	–	–	–	–	–	–	–	–	–
CC(C)C(=O)Nc1ccc([N+](=O)[O-])c(C(F)(F)F)c1 [FLUTAMIDE]	–	> 30 µM	> 30 µM	9.04 µM	> 10 µM	> 30 µM	–	> 30 µM	> 30 µM	> 10 µM	> 10 µM	> 30 µM	> 30 µM	> 30 µM	> 10 µM	–
O=C1[C@H](CC[C@H](O)c2ccc(F)cc2)[C@@H](c2ccc(O)cc2)N1c1ccc(F)cc1 [EZETIMIBE]	–	13.9 µM	19.5 µM	–	–	–	–	–	–	–	–	–	–	–	–	–
CCC(=O)O[C@H]1[C@H](O[C@@H]2[C@@H](C)[C@H](O[C@H]3C[C@@](C)(OC)[C@@H](O)[C@H](C)O3)[C@@H](C)C(=O)O[C@H](CC)[C@@](C)(O)[C@H](O)[C@@H](C)C(=O)[C@H](C)C[C@@]2(C)O)O[C@H](C)C[C@@H]1N(C)C [ERYTHROMYCIN PROPIONATE]	> 300 µM	16.2 µM	29.1 µM	–	–	–	–	–	–	–	–	–	–	–	–	–
CC(C)NNC(=O)c1ccncc1 [IPRONIAZID]	> 300 µM	–	–	–	> 30 µM	> 30 µM	> 30 µM	> 30 µM	> 30 µM	> 30 µM	> 30 µM	> 30 µM	> 30 µM	–	> 30 µM	–
COC(=O)N[C@H](C(=O)N1CCC[C@H]1c1nc(-c2ccc(-c3ccc(-c4c[nH]c([C@@H]5CCCN5C(=O)[C@@H](NC(=O)OC)C(C)C)n4)cc3)cc2)c[nH]1)C(C)C	5.9 µM	–	–	–	> 30 µM	> 30 µM	–	> 30 µM	> 30 µM	> 30 µM	> 30 µM	> 30 µM	> 30 µM	–	> 30 µM	> 30 µM
CC[C@H](C)C(=O)O[C@H]1C[C@H](O)C=C2C=C[C@H](C)[C@H](CC[C@@H](O)C[C@@H](O)CC(=O)O)[C@H]21 [PRAVASTATIN]	> 100 µM	–	–	–	> 30 µM	> 30 µM	> 30 µM	> 30 µM	> 30 µM	> 30 µM	> 30 µM	> 30 µM	> 30 µM	–	> 30 µM	–
OCCN1CCN(CCCN2c3ccccc3C=Cc3ccccc32)CC1 [OPIPRAMOL]	–	19.4 µM	10.9 µM	1.07 µM	> 30 µM	> 30 µM	> 30 µM	> 30 µM	> 30 µM	> 30 µM	> 30 µM	> 30 µM	> 30 µM	–	> 30 µM	> 30 µM
CNC(=O)c1cc(Oc2ccc(NC(=O)Nc3ccc(Cl)c(C(F)(F)F)c3)cc2)ccn1 [SORAFENIB]	2 µM	–	–	–	–	> 30 µM	> 30 µM	> 30 µM	> 30 µM	28 µM	11 µM	> 30 µM	23.2 µM	–	> 30 µM	–
Cc1ccc(O)c2ncccc12 [TILIQUINOL]	–	> 30 µM	> 30 µM	> 30 µM	–	–	–	–	–	–	–	–	–	–	–	–
Cc1cccc(C)c1OCC(C)N (stereo unspecified) [MEXILETINE]	> 300 µM	–	–	–	> 30 µM	–	> 30 µM	> 30 µM	> 30 µM	> 30 µM	> 30 µM	> 30 µM	> 30 µM	–	> 30 µM	–
COc1ccc2c(c1)C(=O)N(CCc1ccc(S(=O)(=O)NC(=O)NC3CCCCC3)cc1)C(=O)C2(C)C [GLIQUIDONE]	1.7 µM	–	–	–	> 30 µM	> 30 µM	–	> 30 µM	> 30 µM	> 30 µM	> 30 µM	> 30 µM	> 30 µM	–	> 30 µM	> 30 µM
CCO/N=C(\C(=O)N[C@@H]1C(=O)N2C(C(=O)[O-])=C(Sc3nc(-c4cc[n+](C)cc4)cs3)CS[C@H]12)c1nsc(N)n1 [CEFTAROLINE]	–	> 30 µM	> 30 µM	> 30 µM	–	–	–	–	–	–	–	–	–	–	–	–
